Results on one molecule are retold here after patent publication EP3354264A1, “PROPHYLAXIS AND TREATMENT OF NEISSERIA GONORRHOEAE EYE INFECTION” (Kingston University Higher Education Corporation, priority 2017, dated 2018).

In brackets after ≈: the same amount, converted by molar mass. Read-outs that look alike come from different tables or passages of the source.

Series [1] has as its system Neisseria gonorrhoeae strain NCCP11945. The experiment in a line: Log reduction in artificial tear fluid. It counts as cell-based. The settings on record: artificial tear fluid containing calcium chloride; two minute exposure; Figure 8. The protocol: Artificial tear fluid was made as in Mirejovsky et al., Optometry and Vision Science, (1991), 68: 858-864. […] Neisseria gonorrhoeae strain NCCP11945 was used in these experiments. As the previous log reductions, […] were suspended in GC broth. The cell suspension was centrifuged to remove the culture medium and the bacteria resuspended in the tear fluid. This was then added to the concentrated organic acid candidates. The cells were then counted again after two minute exposure to estimate any reduction due to the exposure to the fatty acid.
In a first experiment, the artificial tear fluid formulation includes calcium chloride to mimic the calcium in natural tears. As shown by the results in Figure 8, the anti-gonococcal properties of myristoleic acid (C14:1cΔ9), palmitoleic acid (C16:1cΔ9), linolenic acid (C18:3cΔ9,12,15), and monocaprin(C10) are retained in the artificial tear fluid formulation containing calcium chloride.
In a second experiment, calcium chloride was omitted from the artificial tear fluid formulation. The results in Figure 9 indicate that the anti-gonococcal properties of lauric acid (C12:0), tridecanoic acid (C13:0), and sodium dodecanoate were retained in the artificial tear fluid formulation without.

The subject of the next series is Pseudomonas aeruginosa. The settings on record: at the concentration used for the antigonococcal ocular formulation; cited from earlier work.
Series [2] relates to panel of nine N. gonorrhoeae isolates (strain NCCP11945 and eight isolates from Public Health England). Put plainly: Minimum bactericidal concentration by log reduction, panel of isolates. The series is classed as cell-based. The settings on record: Neisseria gonorrhoeae, 2 min; lowest concentration tested giving an average 4 log10 reduction after two minute exposure; nine isolates; read-out: Minimum bactericidal concentration. Here is the method:
(§1) The well characterised N. gonorrhoeae strain NCCP11945 (Chung GT et al. (2008) Complete genome sequence of Neisseria gonorrhoeae NCCP11945. Journal of Bacteriology 190: 6035-6036) was used in the screening stage of this experiment. Eight isolates that were obtained from Public Health England from various European locations were used in the log reduction assays. All isolates were first cultured for 24 hours prior to testing by plating on GC solid medium (Oxoid Limited, Hampshire, UK) with Kellogg supplements and incubating at 37 °C, 5% CO2 (Kellogg DS, Jr., et al., (1963), J Bacteriol 85: 1274-1279).
(§2) Log reductions were done using the same method as in Bergsson et al., (1999), Antimicrob Agents Chemother 43: 2790-2792. Briefly, cells were suspended in GC broth (18 g/L GC Base (Oxiod, Limited) with added defined supplements) to an optical density of 0.3 at 520 nm which is approximately equivalent to 107 - 108 cells per millilitre (Macfarlane DE et al. (1980) Improved media for the culture of Neisseria gonorrhoeae. J Med Microbiol 13: 597-607). Five hundred microliters of the suspension was then added to 5 µl of the 100 mM stocks to give a final concentration of 1 mM. A negative control was also done to calculate the reduction in bacterial titre by adding 500 µl to 5 µl ethanol. The tubes were then mixed at room temperature for two minutes and immediately diluted in a 10 fold dilution series down to 10-4. The dilutions were plated by spreading 10 µl on a quarter of a plate and 100 µl of the neat solution was also plated. Plates were incubated at 37 °C for 48 hours. All samples were plated in duplicate. A reduction in viable cell count by more than 4 log10 was deemed to be bactericidal and was selected for further investigation. Bactericidal compounds were then tested at concentrations of 0.75, 0.5, and 0.25 mM (0.125 mM was also used in some potent compounds) to find the minimum bactericidal concentration. Additional testing at lower concentrations was also done on the eight clinical isolates of European origin.
As shown by the results in Table 3 which presents data on the log reductions of bacterial cell counts, against a panel of nine N. gonorrhoeae isolates (strain NCCP11945 and eight isolates from Public Health England), myristoleic acid (C14:1cΔ9), palmitoleic acid (C16:1cΔ9), linolenic acid (C18:3cΔ9,12,15), and monocaprin (C10) have a minimal bactericidal concentration, defined as the lowest concentration tested to give an average 4 log10 reduction in bacterial count after a two minute exposure, of 0.5 mM. Against a panel of nine N. gonorrhoeae isolates, lauric acid (C12:0), tridecanoic acid (C13:0), and sodium dodecanoate have a minimal bactericidal concentration of 0.75 mM.

For another series, the system named is Neisseria meningitidis. The settings on record: at the concentration used for the antigonococcal ocular formulation; cited from earlier work.
Another series concerns Streptococcus pneumoniae. The settings on record: at the concentration used for the antigonococcal ocular formulation; cited from earlier work.
A short description of the next series: in vitro. The series is classed as cell-based, bovine. Conditions: red blood cells, bovine RBCs, shaken 1 hour at room temperature. The protocol:
(§3) Whole bovine blood was obtained from a local slaughter house (ABP, Guildford, Surrey, UK), adding 90 ml blood to 10 ml of 110 mM tri-sodium citrate anticoagulant. RBCs were isolated the same day. The RBCs were washed by three repeats of centrifugation (1,500 x g for 10 minutes) and resuspension in PBSG. Testing was done following European Union Reference Laboratory for alternatives to animal testing (EURL-ECVAM) guidelines (Lewis RW (2010) DB-ALM Protocol No. 99: Red blood cell (RBC) Test System. EURL ECVAM). The organic acids were made up in DMSO and diluted to a DMSO concentration maximum of 10 % (v/v). Samples were shaken at room temperature for 1 hour and then centrifuged at 10,000 rpm for 2 minutes. An aliquot of 750 µl of the supernatant was taken and absorbance at […] tested.

Another series has as its system RBCs. Put plainly: in vitro. It counts as cell-based, bovine. Conditions: at their minimum bactericidal concentration. The protocol:
as §3

Series [3] relates to N. gonorrhoeae strain NCCP11945. The experiment in a line: Cell culture infection model (primary cornea epithelial cells). The series is classed as cell-based. The settings on record: 1 mM, added 90 minutes after infection; Figure 10. Here is the method:
Primary cornea epithelial cells were obtained from Life Technologies (Paisley, Glasgow, UK) and grown in Keratinocyte serum free medium (Life Technologies), at 37 °C with 5 % CO2 until 80 % confluent. The cells were then trypsin treated, washed, added to 24 welled plates and incubated for a further 24 hours. The medium was replaced and a fresh P+, Opa+ cells N. gonorrhoeae strain NCCP11945 suspension (approximately 10^7 CFU/ml) was added to the cells to get a multiplicity of infection of 10. All samples were done in duplicate. Monocaprin (1 mM, 0.5 mM, 0.25 mM, and 0.125 mM) was either added directly after the bacteria or after 90 minutes. […] The total time of the infection was three hours. The cells were washed five times with 1 ml PBS for each well. The wells were treated with warmed 1 % saponin in PBS and incubated for 10 minutes at 37 °C. After this, 900 µl GC broth was added and log reductions calculated as above. The CFUs of the drug exposed wells were compared to the CFU counts of the Infection controls to estimate the log reduction caused by the action of the monocaprin. Comparisons of the log reductions at different drug administration times at given concentrations was analysed in an unpaired t test using GraphPad Prism (version 6.01).

Series [4] concerns Neisseria gonorrhoeae strain NCCP11945. The experiment in a line: Measurement of bactericidal action (log reduction). The series is classed as cell-based. Conditions: strain NCCP11945, 1 mM, 2 minutes. The protocol: as §1
(§4) A full list of all the organic acids tested in this study is in Table 1. The tested compounds include saturated and unsaturated fatty acids, monoglycerides, dicarboxylic acids, and fatty acid sodium salts. All compounds investigated were resuspended at a concentration of 100 mM in ethanol unless stated. All chemicals were obtained from Sigma-Aldrich (Poole, Dorset, UK).
as §2

The subject of another series is Staphylococcus aureus. The settings on record: at the concentration used for the antigonococcal ocular formulation; cited from earlier work.
In series [5] the test system is Neisseria gonorrhoeae strain NCCP11945. The experiment in a line: Growth inhibition screen of organic acids. It counts as cell-based. The settings on record: strain NCCP11945, in vitro, 1 mM. The protocol: as §1, §4
Other organic acids were also active at this concentration, as noted in Table 1.

In the case of `CCCCCCCCCC(=O)OCC(O)CO` (centres unmarked) [Monocaprin C10, Monocaprin], the “anti-gonococcal properties in artificial tear fluid” value in series [1] is listed as “retained”. Also, in the series with Pseudomonas aeruginosa, the “bactericidal to Pseudomonas aeruginosa” value is given as “bactericidal”. For the same molecule, in series [2], the MBC amounted to 500 µM (≈ 123 µg/mL). In the series on Neisseria meningitidis, the “bactericidal to Neisseria meningitidis” value was “bactericidal”. Further, in the series with Streptococcus pneumoniae, the “bactericidal to Streptococcus pneumoniae” value is reported as “bactericidal”. Moreover, the HC50 at 1 h in “in vitro” (read-out: H50) was 1.6 to 2.4 mM; in “in vitro” (read-out: H50 (mg/L)), 400 to 600 mg/L. Moreover, the “RBC lysis assay prediction of irritation” value with RBCs is given as “not irritating”. Further, the “kill of Neisseria gonorrhoeae that has infected human epithelial cells” value in series [3] was “able to kill”. Moreover, the log reduction at 1000 µM in series [4] (Neisseria gonorrhoeae, 2 min, read-out: Log reduction of Neisseria gonorrhoeae) was over 6. Moreover, the “Log reduction of Neisseria gonorrhoeae” value in [4] is recorded as “able to cause a log reduction”. Further, the “bactericidal to Staphylococcus aureus” value with Staphylococcus aureus was “bactericidal”. The entries for the “Inhibits growth of Neisseria gonorrhoeae” value in series [5] and in [5] (listed as monocaprin) were “Yes” and “able to inhibit growth”, respectively.
